According to patent US7291641B2, “Derivatives of heterocycles with 5 members, their preparation and their use as medicaments” (Societe de Conseils de Recherches et d'Applications …, priority 1999, dated 2007):

Structure (SMILES)	melting point [°C]
CC(C)CCCOC(=O)NCCc1nc(-c2ccc(-c3ccccc3)cc2)c[nH]1 [Example 378, 4-methylpentyl 2-[4-(1,1′-biphenyl-4-yl)-1H-imidazol-2-yl]ethylcarbamate]	128.3
CC(C)(C)CCOC(=O)NCCc1nc(-c2ccc(N3CCCC3)cc2)c[nH]1 [Example 379, 3,3-dimethylbutyl 2-[4-(4-pyrrolidin-1-ylphenyl)-1H-imidazol-2-yl]ethylcarbamate]	119.2
CC(C)CCOC(=O)NCCc1nc(-c2ccc(-c3ccccc3)cc2)c[nH]1 [Example 380, isopentyl 2-[4-(1,1′-biphenyl-4-yl)-1H-imidazol-2-yl]ethylcarbamate]	128 to 130
CCCCCCOC(=O)NCCc1nc(-c2ccc(-c3ccc(Br)cc3)cc2)c[nH]1 [Example 381, hexyl 2-[4-(4′-bromo-1,1′-biphenyl-4-yl)-1H-imidazol-2-yl]ethylcarbamate]	138 to 140
CC(C)(C)c1ccc(-c2c[nH]c(CCNC(=O)OCc3ccccc3)n2)cc1 [Example 382, benzyl 2-[4-(4-tert-butylphenyl)-1H-imidazol-2-yl]ethylcarbamate]	173
CC(C)(C)CCOC(=O)NCCc1nc(-c2ccc(-c3ccccc3)cc2)c[nH]1 [Example 383, 3,3-dimethylbutyl 2-[4-(1,1′-biphenyl-4-yl)-1H-imidazol-2-yl]ethylcarbamate]	98.4
CCCCCCOC(=O)NCCc1nc(-c2ccc(N3CCCC3)cc2)c[nH]1 [Example 384, hexyl 2-[4-(4-pyrrolidin-1-ylphenyl)-1H-imidazol-2-yl]ethylcarbamate]	110 to 114
O=C(NCCc1nc(-c2ccc(N3CCCC3)cc2)c[nH]1)OCCCC(F)(F)F [Example 385, 4,4,4-trifluorobutyl 2-[4-(4-pyrrolidin-1-ylphenyl)-1H-imidazol-2-yl]ethylcarbamate]	148.3
CCCCCCOC(=O)NCCc1nc(-c2cc(C(C)(C)C)c(O)c(C(C)(C)C)c2)c[nH]1 [Example 386, hexyl 2-[4-(3,5-ditert-butyl-4-hydroxyphenyl)-1H-imidazol-2-yl]ethylcarbamate]	197.4
COc1ccc(-c2c[nH]c(CCNC(=O)OCCC(C)(C)C)n2)cc1 [Example 388, 3,3-dimethylbutyl 2-[4-(4-methoxyphenyl)-1H-imidazol-2-yl]ethylcarbamate]	116.8
CC(C)(C)c1cc(-c2c[nH]c(CCNC(=O)OCc3ccccc3)n2)cc(C(C)(C)C)c1O [Example 389, benzyl 2-[4-(3,5-ditert-butyl-4-hydroxyphenyl)-1H-imidazol-2-yl]ethylcarbamate]	177.5
O=C(NCCc1nc(-c2ccc(N3CCCC3)cc2)c[nH]1)OCc1ccccc1 [Example 390, benzyl 2-[4-(4-pyrrolidin-1-ylphenyl)-1H-imidazol-2-yl]ethylcarbamate]	122.4
O=C(NCCc1nc(-c2ccc(-c3ccccc3)cc2)c[nH]1)OCCc1ccccc1 [Example 391, 2-phenylethyl 2-[4-(1,1′-biphenyl-4-yl)-1H-imidazol-2-yl]ethylcarbamate]	142 to 143
CCCCOC(=O)NCCc1nc(-c2ccc(-c3ccc(F)cc3)cc2)c[nH]1 [Example 392, butyl 2-[4-(4′-fluoro-1,1′-biphenyl-4-yl)-1H-imidazol-2-yl]ethylcarbamate]	149.3
CCCCOC(=O)NCCc1nc(-c2ccc(-c3ccccc3)cc2)c(C)[nH]1 [Example 393, butyl 2-[4-(1,1′-biphenyl-4-yl)-5-methyl-1H-imidazol-2-yl]ethylcarbamate]	143 to 144
CCCCOC(=O)NCCc1nc(-c2ccc(-c3ccc(C)cc3)cc2)c[nH]1 [Example 394, butyl 2-[4-(4′-methyl-1,1′-biphenyl-4-yl)-1H-imidazol-2-yl]ethylcarbamate]	168.4
CCCCOC(=O)NCCc1nc(-c2ccc(-c3ccc(Cl)cc3)cc2)c[nH]1 [Example 395, butyl 2-[4-(4′-chloro-1,1′-biphenyl-4-yl)-1H-imidazol-2-yl]ethylcarbamate]	164.2
CCCCOC(=O)NCCc1nc(-c2ccc(-c3ccccc3F)cc2)c[nH]1 [Example 396, butyl 2-[4-(2′-fluoro-1,1′-biphenyl-4-yl)-1H-imidazol-2-yl]ethylcarbamate]	113.8
CCCCOC(=O)NCCc1nc(-c2ccc(-c3ccc(SC)cc3)cc2)c[nH]1 [Example 397, butyl 2-{4-[4′-(methylthio)-1,1′-biphenyl-4-yl]-1H-imidazol-2-yl}ethylcarbamate]	167.9
CCCCOC(=O)NCCc1nc(-c2ccc(-c3cccc(Cl)c3)cc2)c[nH]1 [Example 443, butyl 2-[4-(3′-chloro-1,1′-biphenyl-4-yl)-1H-imidazol-2-yl]ethylcarbamate]	142.6
CCCCOC(=O)NCCc1nc(-c2ccc(-c3cccc(F)c3)cc2)c[nH]1 [Example 444, butyl 2-[4-(3′-fluoro-1,1′-biphenyl-4-yl)-1H-imidazol-2-yl]ethylcarbamate]	141.5
CCCCOC(=O)NCCc1nc(-c2ccc(CC(C)C)cc2)c[nH]1 [Example 445, butyl 2-[4-(4-isobutylphenyl)-1H-imidazol-2-yl]ethylcarbamate]	95.5
CC(C)Cc1ccc(-c2c[nH]c(CCNC(=O)OCc3ccccc3)n2)cc1 [Example 446, benzyl 2-[4-(4-isobutylphenyl)-1H-imidazol-2-yl]ethylcarbamate]	125.2
CCCCOC(=O)NCCc1nc(-c2ccc(-c3ccc(F)c(Cl)c3)cc2)c[nH]1 [Example 447, butyl 2-[4-(3′-chloro-4′-fluoro-1,1′-biphenyl-4-yl)-1H-imidazol-2-yl]ethylcarbamate]	132.4
CCCCOC(=O)NCCc1nc(-c2ccc(-c3ccc(Cl)c(Cl)c3)cc2)c[nH]1 [Example 448, butyl 2-[4-(3′,4′-dichloro-1,1′-biphenyl-4-yl)-1H-imidazol-2-yl]ethylcarbamate]	137.5
CCCCOC(=O)NCCc1nc(-c2ccc(CCC)cc2)c[nH]1 [Example 449, butyl 2-[4-(4-propylphenyl)-1H-imidazol-2-yl]ethylcarbamate]	83.2
CCCCOC(=O)NCCc1nc(-c2ccc(CC)cc2)c[nH]1 [Example 450, butyl 2-[4-(4-ethylphenyl)-1H-imidazol-2-yl]ethylcarbamate]	92.4
CCCCOC(=O)NCCc1nc(-c2ccc(-c3ccc(C#N)cc3)cc2)c[nH]1 [Example 451, butyl 2-[4-(4′-cyano-1,1′-biphenyl-4-yl)-1H-imidazol-2-yl]ethylcarbamate]	147
CCCCOC(=O)NCCc1nc(-c2ccc(-c3ccc(C(F)(F)F)cc3)cc2)c[nH]1 [Example 452, butyl 2-{4-[41-(trifluoromethyl)-1,1′-biphenyl-4-yl]-1H-imidazol-2-yl}ethylcarbamate]	168.5
CCCCOC(=O)NCCc1nc(-c2ccc(-c3ccccc3)cc2)c(CC)[nH]1 [Example 453, butyl 2-[4-(1,1′-biphenyl-4-yl)-5-ethyl-1H-imidazol-2-yl]ethylcarbamate]	127 to 128
